The text below walks through data of EP3623009A1, “MODULATION OF TRF1 FOR BRAIN CANCER TREATMENT” (Fundación del Sector Público Estatal Centro Nacional de …, priority 2018, dated 2020).

“Also recorded” adds a separate entry of the source.

In one data set the test system is p-AKT. The experiment in a line: p-AKT activation (p-AKT/AKT ratio, western blot) in h676 GSCs. The format is cell-based, human. Conditions: 24h at 1 µM. The procedure:
In order to check whether the novel compounds act independently of this pathway, the present inventors treated the cells for 24h at 1 µM concentration and checked p-AKT activation.

In data set [1] the test system is K-Ras^G12V-induced lung tumors. Conditions: Trf1 chemical inhibition; García-Beccaria et al. 2015; cited from earlier work.
In the next data set the test system is U251 cells. The experiment in a line: Sphere formation assay in U251 cells cultured with NSC media. The format is cell-based, human. Conditions: seven days, compared to DMSO. On the procedure:
(§1) Spheres were dissociated into single cells and seeded at a density of 50, 100, 200 and 400 cells/well in a 96 well plate. Neurosphere number was assessed after 7 days. Pictures were taken using Nikon Eclipse Ti-U microscope and neurosphere diameter was measured using NIS Elements BR software.
Finally, the present inventors checked if the three chemical compounds had the ability to reduce stemness in these cells. They cultured U251 cells with NSC media in order to obtain a suspension culture enriched in stem cells. The inventors performed a sphere formation assay with these cells treated with ETP-47228, ETP-47037 and ETP-50946 or DMSO for seven days. […] Of note, all these effects recapitulated what the present inventors observed with Trf1 genetic downregulation (See 2.2).

Data set [2] deals with h676 GSCs. Description: Sphere formation assay in h676 patient-derived GSCs. Format: cell-based, human. Conditions: for diameter of spheres / number of spheres: h676 patient-derived primary GSCs, compared to untreated controls; for sphere formation (dose-response): h676 GSCs, treated 7 days. On the procedure:
as §1

The subject of data set [3] is h543 GSCs. The experiment in a line: Sphere formation assay in h543 patient-derived GSCs. The format is cell-based, human. To be noted: for diameter of spheres / number of spheres: h543 patient-derived primary GSCs, compared to untreated controls; for sphere formation (dose-response): h543 GSCs, treated 7 days. The procedure: as §1
In data set [4] the test system is h676 GSCs. The experiment in a line: Drug combination (synergy) sphere study in h676 GSCs. Format: cell-based, human. Conditions: combinatorial matrix, spheres after 7 days, combination index. On the procedure: Using this concentration as a reference point, the present inventors designed a combinatorial matrix using different concentrations of the compounds (e.g. 2x GI50, GI50 and ½ GI50) to study all the possible combinations. Combination index is calculated to establish if the combination is synergistic, additive or antagonistic (Fig. 50A).

A short description of data set [5]: Brain blood barrier crossing (statement).
Data set [6] relates to h543 GSCs. Description: Subcutaneous xenograft of h543 patient-derived GSCs in nude mice. The format is in vivo. To be noted: oral 75 mg/kg 5 days/week from one week after injection, caliper, vs vehicle. On the procedure:
(§2) h676 and h543 patient-derived GSCs were dissociated using a 200 µl pipet and resuspended in NeuroCult medium and matrigel in a 1:1 ratio in a concentration of 1000 cell/µl. Nude mice (athymic Nude-Foxn1^nu/nu from Harlan) were injected subcutaneously with 100 µl of the cell preparation. ETP-47037 (or vehicle) was orally administrated at a concentration of 75 mg/kg 5 days per week (see also section 8), starting one week after cell injection. The vehicle consisted in 10% N-methyl-2-pyrrolidone (NMP, Sigma Aldrich) and 90% poly ethylene glycol (PEG, Sigma Aldrich). Mice were weighted and tumors were measured every 2-4 days. Tumor area was determined by the following equation: A = π * (a/2) * (b/2), were a and b are tumor length and width respectively.
(§3) For oral administration, ETP-47037 was dissolved in 10% N-methyl-2-pyrrolidone (NMP, Sigma Aldrich) and 90% polyethylene glycol (PEG, Sigma Aldrich) at a concentration of 75 mg/kg.
Next, the present inventors set to address whether TRF1 chemical inhibition was able to block tumor growth in vivo. […] Thus, the two independent primary GSCs (h676 and h543) were injected subcutaneously into nude mice. […]

Data set [7] concerns h676 GSCs. The experiment in a line: Subcutaneous xenograft of h676 patient-derived GSCs in nude mice. The format is in vivo. On the procedure: as §2, §3
Next, the present inventors set to address whether TRF1 chemical inhibition was able to block tumor growth in vivo. […] Thus, the two independent primary GSCs (h676 and h543) were injected subcutaneously into nude mice. One week after GSC injection, mice received oral administration of the vehicle (NMP 10%, PEG 90%) as placebo or the ETP-47037 TRF1 inhibitor 5 days/week, every week until human endpoint, and tumors were continuously followed-up by caliper measurements (Fig. 42A).

The nature of data set [8]: Tolerability and pathology of xenograft mice after long-term treatment. The format is in vivo, nude mice. On the procedure: as §2, with “respectively. […] Table1. Mice pathologies after long-term treatment with vehicle or ETP-47037” for “respectively.”
[9] abbreviates: h676 xenograft, post-mortem, vs placebo.

As for `C[C@@H](Oc1cc(-n2cnc3ccc(CN4CCN(C)CC4)cc32)sc1C(N)=O)c1ccccc1C(F)(F)F` [GSK461364], the “dependence on p-AKT” value with p-AKT was “p-AKT dependent”.

Consider `Cc1cnc2c(N3CCOCC3)nc(-c3ccc(NC(=O)Nc4ccc(C(=O)N5CCN(C)CC5)cc4)cc3)cn12` [ETP-47228], for which, in data set [1], the “growth of already established lung adenocarcinomas” value is recorded as “effectively impair the growth”; the “mouse and tissue viability” value was “without affecting mouse and tissue viability”. In the data set on U251 cells, the diameter of neurospheres entry is listed as “strong reduction” and the number of neurospheres entry is “strong reduction”. Further, in the data set with h676 GSCs [2], the diameter of spheres result is given as “significant drastic reduction” and the number of spheres result was “significant drastic reduction”. Moreover, in the data set with h543 GSCs [3], the diameter of spheres entry was “significant drastic reduction” and the number of spheres entry is given as “significant drastic reduction”.

As for `Nc1ccn([C@@H]2O[C@H](CO)[C@@H](O)C2(F)F)c(=O)n1` [Gemcitabine, reference compound], the “dependence on p-AKT” value in the data set on p-AKT is given as “act independently of p-AKT”. Also, the “sphere formation (dose-response)” value with h676 GSCs [2] and in the data set on h543 GSCs [3] was “most potent compounds” each time. The “synergic effect with the PI3Ki (ETP-47037)” value (“synergic effect” for short) in the data set with h676 GSCs [4] is listed as “significant synergic effect”.

For the compound `COc1cc(Nc2ncc3c(n2)-c2ccc(Cl)cc2C(c2c(F)cccc2OC)=NC3)ccc1C(=O)O` [Alisertib], the “dependence on p-AKT” value with p-AKT is given as “act independently of p-AKT”.

Consider `CC(=O)O[C@@]12CO[C@@H]1C[C@H](O)[C@@]1(C)C(=O)[C@H](O)C3=C(C)[C@@H](OC(=O)[C@H](O)[C@@H](NC(=O)OC(C)(C)C)c4ccccc4)C[C@@](O)([C@@H](OC(=O)c4ccccc4)[C@H]21)C3(C)C` [Docetaxel, reference compound], for which the “dependence on p-AKT” value with p-AKT is on record as “act independently of p-AKT”. Besides, the “sphere formation (dose-response)” value in the data set with h676 GSCs [2] and in the data set on h543 GSCs [3] was “most potent compounds” in each case. Also, the “synergic effect” value in the data set on h676 GSCs [4] is “significant synergic effect”.

With `CS(=O)(=O)N1CCN(Cc2cc3c(N4CCOCC4)nc(-c4cnc(N)nc4)cn3n2)CC1` [ETP-47037], in [5], the “crossing the brain blood barrier” value was “not crossing the brain blood barrier”. For the same compound, in data set [1], the “growth of already established lung adenocarcinomas” value is listed as “effectively impair the growth”; the “mouse and tissue viability” value was “without affecting mouse and tissue viability”. For the same compound, in the data set with U251 cells, the diameter of neurospheres entry is “strong reduction” and the number of neurospheres entry was “strong reduction”. Further, the tumor areas entry with h543 GSCs [6] is “drastic reduction”. For the same compound, in the data set with h676 GSCs [2], the diameter of spheres entry is recorded as “significant drastic reduction” and the number of spheres entry is given as “significant drastic reduction”. Besides, the “proliferation marker Ki67” value in the data set on h676 GSCs [7] (GSCs derived xenograft tumors, Ki67-positive cells per field, vs vehicle) is “reduces proliferation”. Besides, the “γH2AX DNA damage marker” value with h676 GSCs [7] (GSCs derived xenograft tumors, γH2AX-positive cells per field, vs vehicle) is given as “induces DNA damage”. Besides, in the data set on h676 GSCs [7] (h676 xenograft tumors, immunofluorescence, vs placebo), the “decrease of TRF1 protein levels” value amounted to 80%. In addition, in the data set with h676 GSCs [7] (h676 xenograft, oral 75 mg/kg 5 days/week from one week after injection, caliper, vs vehicle), the tumor areas result is “drastic reduction”. Moreover, in the data set on h676 GSCs [7] (setting [9]), the tumor size entry is given as “striking decrease” and the tumor weight result is listed as “striking decrease”. For the same compound, in the data set on h676 GSCs [7] (xenograft tumors after treatment), the “histological analysis of the tumors” value was “decreased cellularity in the tumors, together with necrotic areas, apoptotic bodies, compacted chromatin and fragmented DNA”. Moreover, the “Mice pathologies after long-term treatment” value in [8] (one cell per mouse (Mice 1 to 4)) was “Mice 1: dermatitis, mild widening of lymphatic vessels in intestine; also recorded: Mice 2: dermatitis; also recorded: Mice 3: dermatitis; also recorded: Mice 4: dermatitis”. Also, the “signs of sickness or morbidity” value in data set [8] (treated cohorts compared to the placebo group) is “did not detect any signs of sickness or morbidity”. For the same compound, in the data set with h543 GSCs [3], the diameter of spheres entry was “significant drastic reduction” and the number of spheres entry is “significant drastic reduction”.

Consider `O=C(Nc1ccc2[nH]nc(-c3ccncc3)c2c1)[C@@H]1CCN(CC(=O)N2CCN(c3ccc(-c4ncccn4)cc3)CC2)C1` [SCH772984], for which the “dependence on p-AKT” value in the data set with p-AKT is on record as “act independently of p-AKT”. The “synergic effect” value in the data set on h676 GSCs [4] was “significant synergic effect”.

On to `NC(Cc1ccccc1)c1csc(Nc2ncccn2)n1` (centres unmarked) [ETP-50946], for which, in the data set with U251 cells, the diameter of neurospheres result is “strong reduction” and the number of neurospheres result is recorded as “strong reduction”. For the same compound, in the data set with h676 GSCs [2], the diameter of spheres entry is “significant drastic reduction” and the number of spheres entry is on record as “significant drastic reduction”. Moreover, in the data set with h543 GSCs [3], the diameter of spheres entry is listed as “significant drastic reduction” and the number of spheres result is reported as “significant drastic reduction”.

Consider `COc1ccc(-c2ccc3c(N4CCOCC4)nc(N4C[C@@H](C)O[C@@H](C)C4)nc3n2)cc1CO` [KU-0063794], for which the “dependence on p-AKT” value with p-AKT is reported as “p-AKT dependent”.

On to `CN1CC[C@H](c2c(O)cc(O)c3c(=O)cc(-c4ccccc4Cl)oc23)[C@H](O)C1` [Flavopiridol], for which, in the data set on p-AKT, the “dependence on p-AKT” value is recorded as “act independently of p-AKT”.
